Assay results: ChEMBL document CHEMBL3217442, “Synthesis and bioevaluation of aryl hydroxamates distinguishing between NAD+ and ATP-dependent DNA ligases” (Medchemcomm, 2012)
Converted amounts (≈) assume the structure as drawn. The source made the active and inactive calls. No cut-off for these calls is given here.

Key:
Salmonella typhimurium [1] = experiment: Antibacterial activity against Salmonella typhimurium TT15151 harboring LigA null mutant rescued with ATP-dependent DNA ligase after 20 hrs; type: functional, Salmonella enterica subsp. enterica serovar Typhimurium
Salmonella typhimurium [2] = experiment: Antibacterial activity against Salmonella typhimurium LT2 expressing LigA after 20 hrs; type: functional
Escherichia coli [3] = experiment: Antibacterial activity against Escherichia coli GR501 harboring temperature sensitive lig251 mutant rescued with T4 DNA ligase after 20 hrs; type: functional
[4] = Ratio of IC50 for human DNA ligase 1 to IC50 for Mycobacterium tuberculosis DNA LigA
[5] = Ratio of IC50 for Bacteriophage T4 DNA ligase to IC50 for Mycobacterium tuberculosis DNA LigA
[6] = Inhibition of Bacteriophage […] using 22-mer and 18-mer DNA complementary strand as substrate after 1 hr by 15% polyacrylamide gel electrophoresis; set-up: species or system Tequatrovirus T4
[7] = Inhibition of Mycobacterium tuberculosis DNA LigA using 22-mer and 18-mer DNA complementary strand as substrate after 1 hr by 15% polyacrylamide gel electrophoresis
Escherichia coli [8] = experiment: Binding affinity to Escherichia coli pUC18 DNA after 1 hr by gel shift assay
Bos taurus = species on record: Bos taurus; experiment: Displacement of ethidium bromide from calf thymus DNA assessed as relative fluorescence intensity at 250 uM
DNA ligase 1 = DNA ligase 1 (Homo sapiens, UniProt P18858); experiment: Inhibition of human DNA ligase 1 expressed in Escherichia coli BL21 (DE3) using 22-mer and 18-mer DNA complementary strand as substrate after 1 hr by 15% polyacrylamide gel electrophoresis
DNA ligase 1, sequence (P18858 whole entry): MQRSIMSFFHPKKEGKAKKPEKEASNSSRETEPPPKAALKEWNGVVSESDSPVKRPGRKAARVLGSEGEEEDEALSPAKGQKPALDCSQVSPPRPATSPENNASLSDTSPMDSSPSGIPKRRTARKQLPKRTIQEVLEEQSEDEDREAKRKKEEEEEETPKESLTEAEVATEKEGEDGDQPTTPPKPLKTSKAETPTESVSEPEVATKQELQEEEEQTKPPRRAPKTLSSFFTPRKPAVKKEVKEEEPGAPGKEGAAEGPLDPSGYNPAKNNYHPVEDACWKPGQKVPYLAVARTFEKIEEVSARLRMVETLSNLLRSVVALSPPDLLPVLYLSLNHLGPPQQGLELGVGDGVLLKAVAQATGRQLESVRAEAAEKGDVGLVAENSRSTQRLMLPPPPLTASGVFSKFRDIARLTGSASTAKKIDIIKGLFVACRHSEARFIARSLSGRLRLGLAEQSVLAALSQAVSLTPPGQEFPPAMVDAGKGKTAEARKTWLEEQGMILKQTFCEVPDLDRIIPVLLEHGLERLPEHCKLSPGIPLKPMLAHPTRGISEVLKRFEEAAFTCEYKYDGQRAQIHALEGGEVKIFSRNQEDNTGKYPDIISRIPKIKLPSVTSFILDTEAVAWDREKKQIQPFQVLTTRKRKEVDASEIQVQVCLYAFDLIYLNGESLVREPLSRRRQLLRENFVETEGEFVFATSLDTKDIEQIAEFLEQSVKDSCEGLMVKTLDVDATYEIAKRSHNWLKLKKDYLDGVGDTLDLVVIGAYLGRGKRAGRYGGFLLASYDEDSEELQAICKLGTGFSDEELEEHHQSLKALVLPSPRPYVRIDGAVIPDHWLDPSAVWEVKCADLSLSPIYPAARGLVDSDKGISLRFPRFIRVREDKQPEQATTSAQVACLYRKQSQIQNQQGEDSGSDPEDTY

Salmonella typhimurium [9] = experiment: Bactericidal activity against Salmonella typhimurium LT2 expressing LigA assessed as bacterial cell viability at 0.5 to 2.5 times MIC after 5 hrs; type: functional, organism-based; conditions: Salmonella enterica subsp. enterica serovar Typhimurium
[10] = Competitive inhibition of Mycobacterium tuberculosis DNA LigA using NDA+ as substrate by double reciprocal plot analysis
Salmonella typhimurium [11] = experiment: Bactericidal activity against Salmonella typhimurium TT15151 harboring LigA null mutant rescued with ATP-dependent DNA ligase assessed as bacterial cell viability at 0.5 to 2.5 times MIC after 5 hrs; type: functional, organism-based; conditions: Salmonella enterica subsp. enterica serovar Typhimurium
[12] = Salmonella enterica, TT15151, 20 h
[13] = Salmonella enterica subsp. enterica serovar Typhimurium

Question: For `C=CCOc1ccc(OCc2ccccc2)cc1C(=O)NO`, which MIC (Salmonella typhimurium [1]; [12]) is on record?
Answer: 150 µg/mL (≈ 501 µM)

Question: What about the MIC (Salmonella typhimurium [2]; [13]) of the same molecule?
Answer: inactive

Question: And the MIC (Escherichia coli [3]; GR501, 20 h)?
Answer: 400 µg/mL (≈ 1340 µM)

Question: For `O=C(NO)c1ccccc1OCc1ccc(Cl)c(Cl)c1`, which Ratio IC50 [4] is on record?
Answer: 10

Question: What about the Ratio IC50 [5] of the same molecule?
Answer: 10

Question: What about the IC50 [6] of the same molecule?
Answer: < 20 µM

Question: What about the IC50 [7] of the same molecule?
Answer: 20 µM

Question: What about the MIC (Escherichia coli [3]) of the same molecule?
Answer: inactive

Question: For `C#CCOc1ccc(OCC=C)c(C(=O)NO)c1`, which MIC (Salmonella typhimurium [1]; [13]) is on record?
Answer: inactive

Question: And the MIC (Salmonella typhimurium [2]; Salmonella enterica, LT2, 20 h)?
Answer: 600 µg/mL (≈ 2430 µM)

Question: And the MIC (Escherichia coli [3]; GR501, 20 h)?
Answer: 150 µg/mL (≈ 607 µM)

Question: For `C=CCOc1cc(OCc2cc(Cl)ccc2Cl)ccc1C(=O)NO`, which MIC (Salmonella typhimurium [1]; [12]) is on record?
Answer: 200 µg/mL (≈ 543 µM)

Question: And the MIC (Salmonella typhimurium [2]; [13])?
Answer: inactive

Question: And the MIC (Escherichia coli [3])?
Answer: inactive

Question: For `C=CCOc1cccc(C(=O)NO)c1OCC=C`, which MIC (Salmonella typhimurium [1]; [12]) is on record?
Answer: 400 µg/mL (≈ 1600 µM)

Question: What about the MIC (Salmonella typhimurium [2]; [13]) of the same molecule?
Answer: inactive

Question: And the MIC (Escherichia coli [3])?
Answer: inactive

Question: For `O=C(NO)c1ccc2ccccc2c1OCc1cccc(Cl)c1`, which Ratio IC50 [4] is on record?
Answer: 10

Question: What about the Ratio IC50 [5] of the same molecule?
Answer: 10

Question: And the IC50 [6]?
Answer: 12 µM

Question: What about the IC50 [7] of the same molecule?
Answer: 20 µM

Question: What about the MIC (Escherichia coli [3]) of the same molecule?
Answer: inactive

Question: Which MIC (Salmonella typhimurium [1]; [12]) does the source give for `C=CCOc1ccc(OCc2cc(Cl)ccc2Cl)cc1C(=O)NO` here?
Answer: 800 µg/mL (≈ 2170 µM)

Question: What about the MIC (Salmonella typhimurium [2]; [13]) of the same molecule?
Answer: inactive

Question: And the MIC (Escherichia coli [3]; GR501, 20 h)?
Answer: 400 µg/mL (≈ 1090 µM)

Question: Which Ratio IC50 [4] does the source give for `CCCCCCOc1c(C(=O)NO)ccc2ccccc12` here?
Answer: 10

Question: And the Ratio IC50 [5]?
Answer: 10

Question: What about the IC50 [6] of the same molecule?
Answer: 9.6 µM

Question: And the IC50 [7]?
Answer: 13.6 µM

Question: And the MIC (Escherichia coli [3]; GR501, 20 h)?
Answer: > 200 µg/mL

Question: For `C=CCOc1ccc(C(=O)NO)c(OCC=C)c1`, which MIC (Salmonella typhimurium [1]; [13]) is on record?
Answer: inactive

Question: And the MIC (Salmonella typhimurium [2]; Salmonella enterica, LT2, 20 h)?
Answer: 800 µg/mL (≈ 3210 µM)

Question: What about the MIC (Escherichia coli [3]; GR501, 20 h) of the same molecule?
Answer: 150 µg/mL (≈ 602 µM)

Question: With `C=CCOc1ccc(OCC=C)c(C(=O)NO)c1` as the molecule, how does the MIC (Salmonella typhimurium [1]; [12]) read?
Answer: 150 µg/mL (≈ 602 µM)

Question: And the MIC (Salmonella typhimurium [2]; [13])?
Answer: inactive

Question: And the MIC (Escherichia coli [3]; GR501, 20 h)?
Answer: 200 µg/mL (≈ 802 µM)

Question: For `O=C(NO)c1ccccc1OCC(O)Cn1cc(-c2ccccc2)nn1` (stereo not drawn), which Activity (Escherichia coli [8]) is on record?
Answer: inactive

Question: What about the Ratio IC50 [4] of the same molecule?
Answer: 10

Question: And the Activity (Bos taurus)?
Answer: inactive

Question: What about the IC50 (DNA ligase 1) of the same molecule?
Answer: 41.8 µM

Question: What about the Ratio IC50 [5] of the same molecule?
Answer: 10

Question: And the IC50 [6]?
Answer: 31.4 µM

Question: What about the MIC (Salmonella typhimurium [1]; [12]) of the same molecule?
Answer: 50 µg/mL (≈ 141 µM)

Question: And the MIC (Salmonella typhimurium [2]; Salmonella enterica, LT2, 20 h)?
Answer: 30 µg/mL (≈ 84.7 µM)

Question: And the IC50 [7]?
Answer: 11.4 µM

Question: What about the MIC (Escherichia coli [3]; GR501, 20 h) of the same molecule?
Answer: 40 µg/mL (≈ 113 µM)

Question: With `C=CCOc1ccccc1C(=O)NO` as the molecule, how does the Activity (Escherichia coli [8]) read?
Answer: inactive

Question: What about the Ratio IC50 [4] of the same molecule?
Answer: 10

Question: And the Activity (Bos taurus)?
Answer: inactive

Question: What about the IC50 (DNA ligase 1) of the same molecule?
Answer: 59.3 µM

Question: What about the Ratio IC50 [5] of the same molecule?
Answer: 10

Question: And the Activity (Salmonella typhimurium [9])?
Answer: Active

Question: And the IC50 [6]?
Answer: 62.3 µM

Question: And the Ki [10]?
Answer: 4.3 µM

Question: And the MIC (Salmonella typhimurium [1]; [12])?
Answer: 70 µg/mL (≈ 362 µM)

Question: What about the Activity (Salmonella typhimurium [11]) of the same molecule?
Answer: Active

Question: And the MIC (Salmonella typhimurium [2]; Salmonella enterica, LT2, 20 h)?
Answer: 20 µg/mL (≈ 104 µM)

Question: And the IC50 [7]?
Answer: 7.07 µM

Question: And the MIC (Escherichia coli [3]; GR501, 20 h)?
Answer: 90 µg/mL (≈ 466 µM)

Question: Which results are given for `C=CCOc1cc(OCc2ccc(Br)cc2)ccc1C(=O)NO`?
Answer: MIC (Salmonella typhimurium [1]; [12]): 40 µg/mL (≈ 106 µM); MIC (Salmonella typhimurium [2]; [13]): inactive; MIC (Escherichia coli [3]): inactive

Question: With `O=C(NO)c1ccc2ccccc2c1OCc1ccc(Cl)c(Cl)c1` as the molecule, how does the Ratio IC50 [4] read?
Answer: 10

Question: What about the Ratio IC50 [5] of the same molecule?
Answer: 10

Question: And the IC50 [6]?
Answer: 5.5 µM

Question: And the IC50 [7]?
Answer: 10.6 µM

Question: And the MIC (Escherichia coli [3]; GR501, 20 h)?
Answer: > 200 µg/mL

Question: Which MIC (Salmonella typhimurium [1]; [12]) does the source give for `C=CCOc1ccc(OCc2ccc(Br)cc2)cc1C(=O)NO` here?
Answer: 20 µg/mL (≈ 52.9 µM)

Question: What about the MIC (Salmonella typhimurium [2]; [13]) of the same molecule?
Answer: inactive

Question: And the MIC (Escherichia coli [3]; GR501, 20 h)?
Answer: 80 µg/mL (≈ 212 µM)

Question: With `O=C(NO)c1ccccc1OCc1cccc(Cl)c1` as the molecule, how does the Ratio IC50 [4] read?
Answer: 10

Question: And the Ratio IC50 [5]?
Answer: 10

Question: What about the IC50 [6] of the same molecule?
Answer: 8 µM

Question: What about the IC50 [7] of the same molecule?
Answer: 24 µM

Question: What about the MIC (Escherichia coli [3]) of the same molecule?
Answer: inactive

Question: What does the source list for `C=CCOc1c(OCc2ccccc2)cccc1C(=O)NO`?
Answer: MIC (Salmonella typhimurium [1]; [13]): inactive; MIC (Salmonella typhimurium [2]; [13]): inactive; MIC (Escherichia coli [3]): inactive
